The source of these data is PubChem BioAssay AID1996.

A word on the kinetic solubility: it is the concentration staying in solution when a stock, usually in DMSO, is diluted into the medium.

Converted amounts (≈) assume the structure as drawn. Where only a bound is given, the exact number is not on record here.

For the series the following is noted: buffer; pH 7.4; 200.0 µM.
Molecule `CC(C)(C)C(=O)Nc1cc(NC(=O)C(C)(C)C)cc(C(=O)Nc2c[nH]c(=O)[nH]c2=O)c1` showed a solubility (kinetic) of 45.3 µg/mL (≈ 105 µM). For `CCN(Cc1ccncc1)C(=O)c1ccc(C)c(S(=O)(=O)N2CCCCC2)c1` the value was over 60.2 µg/mL; for `COC(=O)c1scc(C)c1NC(=O)c1cccc(C#N)c1`, over 45 µg/mL; for `CCOC(=O)C1CCN(C(=O)COC(=O)c2c(C)c(CC)nc3ccccc23)CC1`, 20.3 µg/mL (≈ 49.2 µM).

Regarding `O=C(O)c1ccc2c(c1)C(=O)N(c1cc([N+](=O)[O-])ccn1)C2=O`, the kinetic solubility is over 47 µg/mL.

`Fc1ccc(N2CCN(C3CCC(c4ccccc4)CC3)CC2)cc1` (stereo not given) had a kinetic solubility of 1.1 µg/mL (≈ 3.25 µM).

Consider `CC(=O)OC1(c2ccccc2)CCN(C)CC1(C)C.Cl` (stereo not given), for which the kinetic solubility turned out to be 44.2 µg/mL. Against the preceding molecule, the solubility kinetic is about 40-fold higher. For `CCOc1ncccc1C(=O)OCC(=O)c1ccc(OC)c(OC)c1` the value was over 51.8 µg/mL; for `O=C(/C=C/c1ccccc1)Nc1sc2c(c1C(=O)O)CCC2`, over 47 µg/mL; for `CC(=NCCCn1ccnc1)c1c(O)n(-c2ccccc2)c(=O)[nH]c1=O`, over 53 µg/mL.

In turn, `O=S(=O)(NCCN1CCOCC1)c1cc(Cl)ccc1Cl` registered a kinetic solubility of 41.6 µg/mL (≈ 123 µM). As for `Nc1nc(Nc2ccccc2F)nc(N2CCCC2)c1[N+](=O)[O-]`, the figure is 25.8 µg/mL (≈ 81.1 µM); as for `O=C(Nc1ccccc1)N1CCCC1c1cccs1` (stereo not given), 39.9 µg/mL (≈ 146 µM); as for `COC(=O)c1cc(S(=O)(=O)NCCCc2ccco2)c[nH]1`, over 46.9 µg/mL. Regarding `Cn1c(/C=C/c2ccccc2[N+](=O)[O-])nc2ccccc2c1=O`, the solubility (kinetic) came to 0.6 µg/mL (≈ 1.95 µM). As for `COc1cc(/C=C/C(=O)OC(C)C(=O)Nc2ccc(Cl)cn2)ccc1OC(F)F` (stereo not given), the solubility (kinetic) was 2.8 µg/mL (≈ 6.56 µM). For `CC1Cc2ccccc2N1C(=O)COC(=O)c1ccc(O)cc1` (stereo not given) the value was 5.1 µg/mL (≈ 16.4 µM); for `O=C(c1ccc([N+](=O)[O-])cc1)N1CCC(Cc2ccccc2)CC1`, 27.5 µg/mL (≈ 84.8 µM); for `COC(=O)c1c(C)nc2nonc2c1N`, 30 µg/mL (≈ 144 µM). As for `COCCCn1c(=O)cc(C)[nH]c1=S`, the figure is over 32.1 µg/mL. The molecule `CCOc1ccc(-n2c(C)c(C(C)=O)c3cc(OC(C)=O)ccc32)cc1` came in with a solubility (kinetic) of under 0.8 µg/mL.

In the case of `CCCc1ccc(NS(=O)(=O)c2c(C)oc(C)c2C(=O)OC)cc1`, the kinetic solubility was 7.4 µg/mL (≈ 21.1 µM). For `COC(=O)C1=C(C)N(c2ccccc2)/C(=C/c2ccco2)C1=O` the value was 3.3 µg/mL (≈ 10.7 µM); for `Cn1c(=O)c(-c2ccccc2[N+](=O)[O-])c(Cl)c2ccccc21`, 1.2 µg/mL (≈ 3.81 µM); for `O=C1c2ccccc2C(Nc2ccccc2)N1Cc1ccc2c(c1)OCO2` (stereo not given), 0.9 µg/mL (≈ 2.51 µM). For `O=C(CC1NCCNC1=O)Nc1ccccc1` (stereo not given) the value was over 35 µg/mL; for `Cc1ccccc1C(=O)NCC(=O)Nc1ccccc1C(F)(F)F`, over 50.4 µg/mL. `CC1=CC2=NC(=O)/C(=C/c3cccs3)C(=N)N2O1` displayed a solubility (kinetic) of 2.8 µg/mL (≈ 10.8 µM). Consider `COc1ccc(CNC(=O)c2sc(=S)n(-c3ccccc3)c2N)cc1`, for which the kinetic solubility is 0.7 µg/mL (≈ 1.88 µM). For `Cc1ccc(OCC(=O)N2CCCCC2C)c([N+](=O)[O-])n1` (stereo not given) the value was over 44 µg/mL; for `COC(=O)Cc1ccc(NC(=S)N2CCC(Cc3ccccc3)CC2)cc1`, 6.5 µg/mL (≈ 17 µM). As for `O=C(CCNC(=O)c1ccco1)NCc1ccc(F)cc1`, the figure is over 43.5 µg/mL; as for `O=C(CCNC(=O)c1ccco1)Nc1ccccc1N1CCOCC1`, over 51.5 µg/mL; as for `Cc1ccc(C(=O)OCC(=O)Nc2ccccc2Cl)c(O)c1`, 0.8 µg/mL (≈ 2.5 µM). As for `CC(=O)Nc1ccc(NC(=O)c2nccnc2C(=O)O)cn1`, the figure is over 45.2 µg/mL. `NC(=O)c1ccc(NC(=O)CN2CCOCC2)cc1`: the solubility (kinetic) was determined as 35.6 µg/mL (≈ 135 µM). For `Cc1ccc(C(=O)NCCCNC(=O)COc2ccc(Cl)cc2)cn1` the value was 49.7 µg/mL (≈ 137 µM); for `O=C1CSC(c2ccccc2)N1CCc1ccccc1` (stereo not given), 29.6 µg/mL (≈ 104 µM). The molecule `Cc1cc(C(F)(F)F)nc(SCC(=O)NC2CCCCC2)n1` had a kinetic solubility of 33.2 µg/mL (≈ 99.6 µM). As for `COc1cccc(-c2onc3ccc(C(C)=O)cc23)c1`, the figure is 2.9 µg/mL (≈ 10.8 µM); as for `Cc1ccc(C)c(NS(=O)(=O)c2ccc3oc(=O)ccc3c2)c1`, 1.4 µg/mL (≈ 4.25 µM). For the molecule `NC(=O)C1CCN(C(=O)/C=C/c2ccccc2[N+](=O)[O-])CC1`, the solubility (kinetic) is over 45.5 µg/mL.

Molecule `Cc1ccnc(Nc2nc(-c3ccc(O)cc3)cs2)c1` had a solubility (kinetic) of 3.9 µg/mL (≈ 13.8 µM). In turn, `O=C(Nc1ccon1)Nc1cc(Cl)ccc1Cl` showed a kinetic solubility of 1.4 µg/mL (≈ 5.15 µM). For `NS(=O)(=O)c1ccc(Sc2nc3ccccc3s2)c([N+](=O)[O-])c1` the value was 1.7 µg/mL (≈ 4.63 µM); for `Cc1ccc(C)c(N2C(=O)C3C4C=CC(CC4)C3C2=O)c1` (stereo not given), 14.9 µg/mL (≈ 53 µM). For `O=C(Nc1cccnc1Cl)c1cc(-c2ccc(O)cc2)on1` the value was under 0.2 µg/mL. For `O=[N+]([O-])c1ccccc1S(=O)(=O)N1CCN(c2ccccc2)CC1` the value was 7.2 µg/mL (≈ 20.7 µM).

Regarding `C/C(=N\O)c1oc2ccc3c(C)cc(=O)oc3c2c1C`, the solubility (kinetic) was under 0.6 µg/mL. For `COc1ccc(OC)c(CNc2c(C=O)c(=O)[nH]c3ccccc23)c1` the value was under 0.4 µg/mL.
